Columns and labels:
Type in all cases: in vivo, mice
VEGF-A [1] = assay: RT-PCR for VEGF-A at outflow vein, simvastatin
Protocol: (§1) Animals were housed at 22° C. temperature, 41% relative humidity, and 12-/12-hour light/dark cycles. Animals were allowed access to water and food ad libitum. […] Sixty-eight male C57BL/6 mice (Jackson Laboratories, Bar Harbor, Me.) weighing 25-30 grams were used for the present study (FIG. 18). Chronic kidney disease was created by surgical removal of the right kidney accompanied by ligation of the arterial blood supply to the upper pole of the left kidney as described elsewhere (Misra et al., J. Vasc. Interv. Radiol., 21:1255-1261 (2010); see, also, FIG. 18A). Three weeks after nephrectomy, the animals were started on simvastatin (40 mg/kg administered i.p. three times per week) or PBS (equal amount of volume used for simvastatin i.p. controls). Simvastatin was prepared as described elsewhere (Wilson et al., Arterioscler Thromb. Vasc. Biol., 21:122-128 (2001)). A week later, an AVF was created by connecting the right carotid artery to the ipsilateral jugular vein (FIG. 18B; see, also, Misra et al., J. Vasc. Interv. Radiol., 21:1255-1261 (2010) and Yang et al., J. Vasc. Interv. Radiol., 20:946-950 (2009)). Animals were sacrificed at day 7, day 14, and day 28 following AVF placement for real time polymerase chain reaction (RT-PCR) and histomorphometric analyses (FIG. 18C). Serum BUN and creatinine were measured by removing blood from the tail vein at baseline (before nephrectomy), at AVF creation, and at the time of sacrifice. […] These animals were started on simvastatin (40 mg/kg i.p.) or PBS (equal amount of volume i.p.) every other day one week before AVF placement and then sacrificed four weeks after fistula placement for histomorphometric analysis.
(§2) The tissue was stored in RNA stabilizing reagent (Qiagen, Gaithersburg, Md.) as per the manufacturer's guidelines. To isolate the RNA, the specimens were homogenized, and total RNA was isolated using RNeasy mini kit (Qiagen) (Misra et al., J. Vasc. Interv. Radiol., 21:1255-1261 (2010); and Yang et al., J. Vasc. Interv. Radiol., 20:946-950 (2009)).
(§3) Expression for the gene of interest was determined using RT-PCR analysis as described elsewhere (Misra et al., J. Vasc. Interv. Radiol., 21:1255-1261 (2010)). Commercial PCR primers for the gene of interest were purchased from SA Biosciences (Frederick, Md.).

MMP-9 [2] = assay: RT-PCR for MMP-9 at outflow vein, simvastatin
Protocol: as §1, §2, §3

VEGF-A [3] = assay: RT-PCR for VEGF-A in kidneys, simvastatin
Protocol: (§4) Animals were housed at 22° C. temperature, 41% relative humidity, and 12-/12-hour light/dark cycles. Animals were allowed access to water and food ad libitum. […] Sixty-eight male C57BL/6 mice (Jackson Laboratories, Bar Harbor, Me.) weighing 25-30 grams were used for the present study (FIG. 18). Chronic kidney disease was created by surgical removal of the right kidney accompanied by ligation of the arterial blood supply to the upper pole of the left kidney as described elsewhere (Misra et al., J. Vasc. Interv. Radiol., 21:1255-1261 (2010); see, also, FIG. 18A). Three weeks after nephrectomy, the animals were started on simvastatin (40 mg/kg administered i.p. three times per week) or PBS (equal amount of volume used for simvastatin i.p. controls). Simvastatin was prepared as described elsewhere (Wilson et al., Arterioscler Thromb. Vasc. Biol., 21:122-128 (2001)). […] Serum BUN and creatinine were measured by removing blood from the tail vein at baseline (before nephrectomy), at AVF creation, and at the time of sacrifice. […]
(§5) Expression for the gene of interest was determined using RT-PCR analysis as described elsewhere (Misra et al., J. Vasc. Interv. Radiol., 21:1255-1261 (2010)). […]

MMP-2 = assay: RT-PCR for MMP-2 in kidneys, simvastatin
Protocol: as §4, §5

MMP-9 [4] = assay: RT-PCR for MMP-9 in kidneys, simvastatin
Protocol: as §1, §2, §3

[5] = test system: outflow vein of arteriovenous fistula; assay: Histomorphometry of outflow vein (neointima, media/adventitia, lumen area, cell density), simvastatin; conditions: for Average reduction of media/adventitia area / average increase of lumen vessel area / average reduction of media/adventitia cell density / average reduction of neointima area / average reduction of neointima cell density: vs control
Protocol: as §1
At euthanasia, all mice were anesthetized, and the arterio-venous fistula was carefully dissected from of the surrounding tissue. Animals were euthanized by use of CO2 asphyxiation, and the outflow veins harvested for RT-PCR or histomorphometric analyses as described elsewhere (Misra et al., Kidney Int., 68:2890-2900 (2005); Misra et al., J. Vasc. Interv. Radiol., 21:1255-1261 (2010); and Misra et al., Am. J. Physiol. Heart Circ. Physiol., 294:H2219-2230 (2008)).
Morphometric analysis was performed as described elsewhere (Misra et al., Kidney Int., 68:2890-2900 (2005); and Misra et al., Am. J. Physiol. Heart Circ. Physiol., 294:H2219-2230 (2008)). Briefly, the outflow vein was sectioned into multiple contiguous 4-μm paraffin embedded sections. Typically, 2 to 3 sections per animal for each group (simvastatin and controls) and time point (day 14 and day 28) were photographed and then quantified using KS 400 (Carl Zeiss, Inc., Thornwood, N.Y.) semiquantitative program.

## CCC(C)(C)C(=O)O[C@H]1C[C@@H](C)C=C2C=C[C@H](C)[C@H](CC[C@@H]3C[C@@H](O)CC(=O)O3)[C@H]21 [simvastatin]
VEGF-A [1]; day 7
  mean gene expression of VEGF-A: 0.58±0.06
VEGF-A [1]; day 7, vs control
  Average reduction of VEGF-A gene expression: 44%
VEGF-A [1]; day 14
  mean gene expression of VEGF-A: 0.51±0.1
VEGF-A [1]; day 14, vs control
  Average reduction of VEGF-A gene expression: 49%
MMP-9 [2]; day 7
  average gene expression of MMP-9: 0.19±0.03
MMP-9 [2]; day 7, vs control
  Average reduction of MMP-9 gene expression: 69%
MMP-9 [2]; day 14
  average gene expression of MMP-9: 0.37±0.02
MMP-9 [2]; day 14, vs control
  Average reduction of MMP-9 gene expression: 41%
VEGF-A [3]; day 28
  average gene expression of VEGF-A: 1±0.02
VEGF-A [3]; day 28, vs control
  Average reduction of VEGF-A gene expression: 24%
MMP-2; day 28
  expression of MMP-2: 0.78±0.09
MMP-2; day 28, vs control
  Average reduction of MMP-2 expression: 42%
MMP-9 [4]; day 7
  average gene expression of MMP-9: 0.42±0.13
MMP-9 [4]; day 7, vs control
  Average reduction of MMP-9 gene expression: 57%
MMP-9 [4]; day 28
  average gene expression of MMP-9: 0.64±0.09
MMP-9 [4]; day 28, vs control
  Average reduction of MMP-9 gene expression: 44%
[5]; day 14
  average area of the media/adventitia: 147603±4443 μm^2
  average area of the neointima: 61864±12401 μm^2
  average cell density of the media/adventitia: 3.27±0.33
  average cell density of the neointima: 4.6±0.2
  average lumen vessel area: 95051±21583
  Average reduction of media/adventitia area: 43%
  average increase of lumen vessel area: 150%
  average reduction of media/adventitia cell density: 37%
  average reduction of neointima area: 56%
  average reduction of neointima cell density: 65%
[5]; day 28
  average area of the neointima: 85574±1652
  average cell density of the media/adventitia: 2.85±0.10
  average cell density of the neointima: 4.2±0.2
  average lumen vessel area: 162607±34685
  average increase of lumen vessel area: 343%
  average reduction of media/adventitia cell density: 35%
  average reduction of neointima area: 45%
  average reduction of neointima cell density: 70%
[5]; day 28, not statistically significant (P=0.03)
  Average reduction of media/adventitia area: 32%
[5]; day 28 normal
  average cell density of the media/adventitia: 1.67±0.1
  average cell density of the neointima: 2.63±0.11
  average reduction of media/adventitia cell density: 71%
  average reduction of neointima cell density: 61%
[5]; day 28 normal, not statistically significant (P=0.03)
  Average reduction of media/adventitia area: 29%

From patent publication US20140011822A1, “METHODS AND MATERIALS FOR REDUCING VENOUS STENOSIS FORMATION OF AN ARTERIOVENOUS FISTULA OR GRAFT” (priority 2011, published 2014)
